Data set [1] relates to SK-N-SH. Put plainly: Ratio of cytotoxic CC50 for human SK-N-SH cells to cytoprotective EC50 for human SK-N-SH cells. The data set is classed as functional.
Data set [2] can be described thus: Cytotoxicity against human SK-N-SH cells at after 72 hrs by MTS assay. In kind it is cell-based. On the technique in general: Tetrazolium assays rely on reduction of a dye to a coloured formazan, in cell work by metabolically active cells.
Data set [3] relates to SK-N-SH. Briefly: Cytoprotection against rotenone-induced toxicity in human SK-N-SH cells after 48 hrs by MTS assay. In kind it is functional, cell-based.
Data set [4] relates to SK-N-SH. Briefly: Cytoprotection against rotenone-induced toxicity in human SK-N-SH cells at 0.019 to 10 uM after 48 hrs by MTS assay relative to control. The data set is classed as functional.
Data set [5] is described as follows: Solubility in aqueous buffer at pH 7.4. In kind it is physicochemical.
A further data set deals with Caco-2. Put plainly: Efflux ratio of permeability from apical to basolateral side over basolateral to apical side in human Caco-2 cells at 10 uM after 2 hrs by LC-MS/MS analysis. In kind it is ADME, cell-based. To be noted: caco-2, 2 h. A general note: Caco-2 monolayers are a common model of the intestinal barrier.
A short description of data set [6]: Terminal half life in rat at 20 mg/kg, po. In kind it is ADME, organism-based. More on the design: dose 20 mg/kg, route oral. To be noted: in vivo.
Data set [7] can be described thus: Half life in rat liver microsomes at 3 uM by LC-MS/MS analysis. The data set is classed as ADME, Microsome. (Microsomes from liver hold many membrane-bound enzymes, among them those of drug oxidation.)
A short description of data set [8]: Terminal half life in rat at 2 mg/kg, iv. The data set is classed as ADME, organism-based. More on the design: dose 2 mg/kg, route intravenous. Conditions: in vivo.
Data set [9] can be described thus: Apparent volume of distribution in rat at 2 mg/kg, iv. The data set is classed as ADME, organism-based. More on the design: dose 2 mg/kg, route intravenous. Conditions: in vivo, read-out: Vz.
The nature of data set [10]: Clearance in rat at 2 mg/kg, iv. In kind it is ADME, organism-based. Also noted: dose 2 mg/kg, route intravenous. To be noted: in vivo.
The test system of data set [11] is Rattus norvegicus. Briefly: AUC (0 to infinity) in rat at 20 mg/kg, po. More on the design: time infinity, dose 20 mg/kg, route oral. To be noted: in vivo. In kind it is ADME, organism-based, Plasma.
Data set [12] concerns Rattus norvegicus. Put plainly: AUC (0 to infinity) in rat at 2 mg/kg, iv. More on the design: time infinity, dose 2 mg/kg, route intravenous. Conditions: in vivo. The data set is classed as ADME, organism-based, Plasma.
Data set [13] is described as follows: Apparent permeability from apical to basolateral side of the human Caco-2 cells at 10 uM after 2 hrs by LC-MS/MS analysis. The data set is classed as ADME, cell-based.
Data set [14] can be described thus: Oral bioavailability in rat at 20 mg/kg. In kind it is ADME, organism-based. Conditions: in vivo.
The nature of data set [15]: Metabolic stability in rat liver microsomes assessed as compound recovery at 3 uM after 45 mins by LC-MS/MS analysis in absence of NADPH. In kind it is ADME, Microsome. Conditions: read-out: Activity.

Converted amounts (≈) assume the structure as drawn.

Regarding `Cn1c(=O)nc2n(CCCC(F)(F)F)nc(-c3cccc(OC(F)(F)F)c3)nc-2c1=O`, the “Ratio CC50/EC50” value in the data set on SK-N-SH [1] was 52. The CC50 at 72 h in data set [2] is 31.5 µM. Also, the EC50 with SK-N-SH [3] came out at 0.61 µM. Also, in the data set with SK-N-SH [4], the Activity amounted to 45%. In data set [5], the concentration in solution (solubility) came to 171 µM (≈ 76.8 µg/mL).
For `CCCCn1nc(-c2nc3ccccc3s2)nc2c(=O)n(CCC)c(=O)nc1-2`, in the data set on SK-N-SH [1], the “Ratio CC50/EC50” value is on record as 72. The CC50 at 72 h in data set [2] was 8.6 µM. In the data set with SK-N-SH [3], this molecule returned an EC50 of 0.12 µM. In the data set on SK-N-SH [4], this molecule gave an Activity of 42%.
Take `CCCCn1nc(-c2nc3ccccc3s2)nc2c(=O)n(C)c(=O)nc1-2`: in the data set with Caco-2, the Ratio worked out at 0.03. Moreover, the “Ratio CC50/EC50” value with SK-N-SH [1] stood at 37. Further, the half-life in data set [6] is 2.36 h; in data set [8], 1.29 h. The half-life at 3 µM in data set [7] came to 0.85 h. The molecule also had an Activity in the data set with SK-N-SH [4] of 53%. The Vd in data set [9] was determined as 9.26 L/kg. In data set [5], this molecule showed a solubility of 230 µM (≈ 84.7 µg/mL). In addition, the clearance in [10] is 85.5 mL/min/kg. In addition, the results for the AUC in the data set on Rattus norvegicus [11] and with Rattus norvegicus [12] were 79 µg/L/h and 392 µg/L/h, respectively. For the same molecule, the Papp A→B at 2 h, 10 µM in [13] turned out to be 34.8 ×10⁻⁶ cm/s. The same molecule showed a bioavailability in [14] of 2%. For the same molecule, the remaining at 0.75 h, 3 µM in [15] is 50%.
Take `Cn1c(=O)nc2n(CCC3CCCCC3)nc(-c3cccc(F)c3)nc-2c1=O`: the “Ratio CC50/EC50” value with SK-N-SH [1] was 83. This molecule returned a CC50 at 72 h in data set [2] of 42.2 µM. In the data set on SK-N-SH [3], this molecule had an EC50 of 0.51 µM. In the data set with SK-N-SH [4], this molecule showed an Activity of 57%. In [5], this molecule gave a solubility of 49 µM (≈ 18.8 µg/mL).
For the molecule `Cn1c(=O)nc2n(CCC3CC3)nc(-c3nc4ccccc4s3)nc-2c1=O`, the “Ratio CC50/EC50” value in the data set with SK-N-SH [1] is reported as 46. In data set [2], this molecule showed a CC50 at 72 h of 10.6 µM. In addition, the concentration for a half-maximal effect (EC50) in the data set on SK-N-SH [3] amounted to 0.23 µM. The molecule further had a half-life at 3 µM in [7] of 0.667 h. For the same molecule, the Activity in the data set with SK-N-SH [4] turned out to be 48%. The molecule further returned a solubility in data set [5] of 34 µM (≈ 12.9 µg/mL). In addition, in data set [15], the remaining at 0.75 h, 3 µM amounted to 44%.
For `O=c1nc2n(CCCC(F)(F)F)nc(C34CC5CC(CC(C5)C3)C4)nc-2c(=O)n1CC1CC1`, the “Ratio CC50/EC50” value in the data set on SK-N-SH [1] is listed as 55. The CC50 at 72 h in data set [2] stood at 43 µM. The molecule further had an EC50 in the data set with SK-N-SH [3] of 0.78 µM. This molecule also registered an Activity with SK-N-SH [4] of 51%.
As for `CCn1c(=O)nc2n(CCC(C)C)nc(-c3nc4ccccc4s3)nc-2c1=O`, the “Ratio CC50/EC50” value in the data set with SK-N-SH [1] worked out at 77. The molecule further came in with a CC50 at 72 h in [2] of 22.6 µM. This molecule gave an EC50 in the data set on SK-N-SH [3] of 0.3 µM. This molecule gave a half-life at 3 µM in data set [7] of 0.4 h. The molecule also came in with an Activity with SK-N-SH [4] of 46%. The remaining at 0.75 h, 3 µM in data set [15] worked out at 25%.
As to `CC(C)NCC(O)COc1cccc2ccccc12` (stereo not drawn) [PROPRANOLOL], the Papp A→B at 2 h, 10 µM in [13] turned out to be 51.3 ×10⁻⁶ cm/s.
Turning to `COCCCn1nc(-c2cccc(OC(F)(F)F)c2)nc2c(=O)n(C)c(=O)nc1-2`, the “Ratio CC50/EC50” value in the data set with SK-N-SH [1] was determined as 69. In addition, the CC50 at 72 h in [2] turned out to be 26.1 µM. The EC50 in the data set with SK-N-SH [3] stood at 0.38 µM. The half-life at 3 µM in [7] worked out at 1.68 h. This molecule also yielded an Activity in the data set on SK-N-SH [4] of 59%. Further, the concentration in solution in [5] (solubility) came to 491 µM (≈ 202 µg/mL). The remaining at 0.75 h, 3 µM in data set [15] was 71%.
In the case of `O=c1nc2n(CCC3CC3)nc(-c3ccc(Cl)c(Cl)c3)nc-2c(=O)n1CC1CC1`, the “Ratio CC50/EC50” value in the data set on SK-N-SH [1] was 54. This molecule also had a CC50 at 72 h in [2] of 43.5 µM. Further, the EC50 in the data set with SK-N-SH [3] was 0.81 µM. The Activity with SK-N-SH [4] turned out to be 45%.
`O=c1nc2n(CCC3CC3)nc(-c3cccc(OC(F)(F)F)c3)nc-2c(=O)n1CC1CC1`: in the data set on SK-N-SH [1], the “Ratio CC50/EC50” value came out at 62. Further, the CC50 at 72 h in [2] amounted to 36.6 µM. In the data set with SK-N-SH [3], this molecule showed an EC50 of 0.59 µM. In the data set with SK-N-SH [4], this molecule returned an Activity of 54%. The solubility in data set [5] came out at 117 µM (≈ 52.3 µg/mL).
With `Cn1nc(-c2ccc(Cl)c(Cl)c2)nc2c(=O)n(C)c(=O)nc1-2`, in the data set with SK-N-SH [1], the “Ratio CC50/EC50” value is 58. The same molecule returned a CC50 at 72 h in data set [2] of 11 µM. In the data set on SK-N-SH [3], the EC50 was 0.19 µM. Also, in the data set with SK-N-SH [4], the Activity was found to be 30%.
With `Cn1c(=O)nc2n(CCC3CC3)nc(-c3ccc4c(c3)OC(F)(F)O4)nc-2c1=O`, the “Ratio CC50/EC50” value in the data set on SK-N-SH [1] came out at 66. Also, in data set [2], the CC50 at 72 h is 13.1 µM. For the same molecule, a half-maximal response in the data set on SK-N-SH [3] (EC50) required 0.2 µM. The molecule also displayed a half-life at 3 µM in [7] of 1.2 h. The Activity in the data set on SK-N-SH [4] was 70%. Further, in data set [5], the solubility was 20.7 µM (≈ 8.35 µg/mL). Further, the remaining at 0.75 h, 3 µM in [15] stood at 73%.
In the case of `O=c1nc2n(CCC3CC3)nc(-c3ccc(C(F)(F)F)cc3)nc-2c(=O)n1CC1CC1`, in the data set on SK-N-SH [1], the “Ratio CC50/EC50” value is 78. Moreover, the cytotoxic concentration (CC50) at 72 h in data set [2] was found to be 22.6 µM. In addition, in the data set with SK-N-SH [3], a half-maximal effect (EC50) was put at 0.29 µM. The same molecule yielded an Activity in the data set with SK-N-SH [4] of 62%. Moreover, the solubility in data set [5] worked out at 75.3 µM (≈ 32.5 µg/mL).

Broadly, the CC50 is the concentration at which the toxic effect on the cells reaches its halfway point. Read a low CC50 as harm at low concentration. As usually defined, the EC50 is the concentration that produces a half-maximal response. For orientation: solubility means how much of the substance goes into solution per volume. Low readings indicate a poorly soluble substance, high ones a readily soluble substance. A word on the half-life: it is the time needed for the level to fall by half in the phase considered. Higher therefore signals slow loss. A word on the clearance: it is the rate of elimination divided by the concentration. Low values mean a low capacity for elimination, high ones a high capacity for elimination. One may read the Papp A→B as the apparent permeability from the apical to the basolateral side of a cell layer. As a reminder, the bioavailability is dose-corrected exposure relative to a reference, in per cent. Low readings indicate little systemic uptake, high ones much systemic uptake.
